Consider 8 molecules from US9340590B2 (priority 2011, dated 2016).

Like-named read-outs stand apart in the source and are kept apart here. Positions of bridges follow the written chain, without caps; N, C: chain ends. Non-standard residues stand in square brackets, D forms with d. Residues, ends and D or L forms follow the SMILES beside them. Nva = CCC[C@H](N)C(=O)O; Sar = CNCC(=O)O

For experiment [1], the target named is hNav1.7 (Homo sapiens, UniProt Q15858). Kind of experiment: cell-based.
The target in experiment [2] is hNav1.5 (Homo sapiens, UniProt Q14524). Put plainly: cell-based.
Chain of hNav1.5 (Q14524 whole entry, looked up): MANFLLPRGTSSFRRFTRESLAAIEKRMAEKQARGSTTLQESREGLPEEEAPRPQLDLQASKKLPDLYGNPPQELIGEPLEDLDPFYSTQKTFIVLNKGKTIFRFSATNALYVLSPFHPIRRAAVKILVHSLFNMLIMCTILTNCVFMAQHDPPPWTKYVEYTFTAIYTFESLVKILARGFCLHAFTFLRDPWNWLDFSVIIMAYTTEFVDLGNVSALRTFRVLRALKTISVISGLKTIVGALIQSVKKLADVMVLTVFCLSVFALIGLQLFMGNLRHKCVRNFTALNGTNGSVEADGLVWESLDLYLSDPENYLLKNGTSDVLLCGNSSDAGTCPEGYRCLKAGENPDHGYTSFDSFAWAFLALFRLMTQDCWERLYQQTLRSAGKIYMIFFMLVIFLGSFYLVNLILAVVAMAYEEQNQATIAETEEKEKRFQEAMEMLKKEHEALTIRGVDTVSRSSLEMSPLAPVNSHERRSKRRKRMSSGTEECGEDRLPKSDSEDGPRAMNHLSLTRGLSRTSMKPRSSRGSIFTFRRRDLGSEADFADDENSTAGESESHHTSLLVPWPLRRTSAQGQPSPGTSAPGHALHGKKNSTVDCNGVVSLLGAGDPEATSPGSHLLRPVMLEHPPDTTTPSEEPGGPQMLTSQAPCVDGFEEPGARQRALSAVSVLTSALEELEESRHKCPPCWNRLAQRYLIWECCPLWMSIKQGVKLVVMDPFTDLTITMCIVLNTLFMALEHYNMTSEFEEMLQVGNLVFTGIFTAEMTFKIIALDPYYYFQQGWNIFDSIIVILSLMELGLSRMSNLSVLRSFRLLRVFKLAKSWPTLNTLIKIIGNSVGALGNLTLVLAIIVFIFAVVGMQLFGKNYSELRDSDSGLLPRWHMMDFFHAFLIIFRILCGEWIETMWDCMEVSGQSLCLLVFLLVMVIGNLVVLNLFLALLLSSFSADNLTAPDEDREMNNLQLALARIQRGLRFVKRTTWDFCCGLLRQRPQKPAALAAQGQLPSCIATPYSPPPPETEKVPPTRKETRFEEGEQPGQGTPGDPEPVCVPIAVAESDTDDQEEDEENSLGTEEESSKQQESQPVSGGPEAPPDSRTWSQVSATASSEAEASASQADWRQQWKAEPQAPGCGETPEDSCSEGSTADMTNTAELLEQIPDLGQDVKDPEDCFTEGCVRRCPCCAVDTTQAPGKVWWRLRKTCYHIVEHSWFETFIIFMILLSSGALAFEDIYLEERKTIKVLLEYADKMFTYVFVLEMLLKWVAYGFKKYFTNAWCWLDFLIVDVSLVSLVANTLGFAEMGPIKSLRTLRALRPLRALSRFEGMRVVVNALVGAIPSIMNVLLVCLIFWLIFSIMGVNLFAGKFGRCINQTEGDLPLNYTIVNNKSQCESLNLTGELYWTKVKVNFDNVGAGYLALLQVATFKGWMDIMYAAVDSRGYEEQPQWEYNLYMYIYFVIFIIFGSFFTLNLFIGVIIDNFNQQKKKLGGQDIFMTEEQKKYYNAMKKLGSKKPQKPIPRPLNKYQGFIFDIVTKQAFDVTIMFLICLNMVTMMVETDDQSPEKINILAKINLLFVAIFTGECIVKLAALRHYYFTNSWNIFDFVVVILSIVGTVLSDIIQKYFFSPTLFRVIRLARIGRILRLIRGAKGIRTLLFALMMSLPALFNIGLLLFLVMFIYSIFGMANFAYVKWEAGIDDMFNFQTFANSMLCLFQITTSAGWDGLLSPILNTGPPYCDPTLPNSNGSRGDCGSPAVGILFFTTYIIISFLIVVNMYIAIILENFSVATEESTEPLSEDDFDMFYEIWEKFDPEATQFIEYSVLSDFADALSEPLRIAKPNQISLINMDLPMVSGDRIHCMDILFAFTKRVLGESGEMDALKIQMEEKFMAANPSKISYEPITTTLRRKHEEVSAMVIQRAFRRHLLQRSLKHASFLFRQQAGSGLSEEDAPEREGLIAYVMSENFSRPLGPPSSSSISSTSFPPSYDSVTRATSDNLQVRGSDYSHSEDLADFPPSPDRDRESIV

Chain of hNav1.7 (Q15858 whole entry, looked up): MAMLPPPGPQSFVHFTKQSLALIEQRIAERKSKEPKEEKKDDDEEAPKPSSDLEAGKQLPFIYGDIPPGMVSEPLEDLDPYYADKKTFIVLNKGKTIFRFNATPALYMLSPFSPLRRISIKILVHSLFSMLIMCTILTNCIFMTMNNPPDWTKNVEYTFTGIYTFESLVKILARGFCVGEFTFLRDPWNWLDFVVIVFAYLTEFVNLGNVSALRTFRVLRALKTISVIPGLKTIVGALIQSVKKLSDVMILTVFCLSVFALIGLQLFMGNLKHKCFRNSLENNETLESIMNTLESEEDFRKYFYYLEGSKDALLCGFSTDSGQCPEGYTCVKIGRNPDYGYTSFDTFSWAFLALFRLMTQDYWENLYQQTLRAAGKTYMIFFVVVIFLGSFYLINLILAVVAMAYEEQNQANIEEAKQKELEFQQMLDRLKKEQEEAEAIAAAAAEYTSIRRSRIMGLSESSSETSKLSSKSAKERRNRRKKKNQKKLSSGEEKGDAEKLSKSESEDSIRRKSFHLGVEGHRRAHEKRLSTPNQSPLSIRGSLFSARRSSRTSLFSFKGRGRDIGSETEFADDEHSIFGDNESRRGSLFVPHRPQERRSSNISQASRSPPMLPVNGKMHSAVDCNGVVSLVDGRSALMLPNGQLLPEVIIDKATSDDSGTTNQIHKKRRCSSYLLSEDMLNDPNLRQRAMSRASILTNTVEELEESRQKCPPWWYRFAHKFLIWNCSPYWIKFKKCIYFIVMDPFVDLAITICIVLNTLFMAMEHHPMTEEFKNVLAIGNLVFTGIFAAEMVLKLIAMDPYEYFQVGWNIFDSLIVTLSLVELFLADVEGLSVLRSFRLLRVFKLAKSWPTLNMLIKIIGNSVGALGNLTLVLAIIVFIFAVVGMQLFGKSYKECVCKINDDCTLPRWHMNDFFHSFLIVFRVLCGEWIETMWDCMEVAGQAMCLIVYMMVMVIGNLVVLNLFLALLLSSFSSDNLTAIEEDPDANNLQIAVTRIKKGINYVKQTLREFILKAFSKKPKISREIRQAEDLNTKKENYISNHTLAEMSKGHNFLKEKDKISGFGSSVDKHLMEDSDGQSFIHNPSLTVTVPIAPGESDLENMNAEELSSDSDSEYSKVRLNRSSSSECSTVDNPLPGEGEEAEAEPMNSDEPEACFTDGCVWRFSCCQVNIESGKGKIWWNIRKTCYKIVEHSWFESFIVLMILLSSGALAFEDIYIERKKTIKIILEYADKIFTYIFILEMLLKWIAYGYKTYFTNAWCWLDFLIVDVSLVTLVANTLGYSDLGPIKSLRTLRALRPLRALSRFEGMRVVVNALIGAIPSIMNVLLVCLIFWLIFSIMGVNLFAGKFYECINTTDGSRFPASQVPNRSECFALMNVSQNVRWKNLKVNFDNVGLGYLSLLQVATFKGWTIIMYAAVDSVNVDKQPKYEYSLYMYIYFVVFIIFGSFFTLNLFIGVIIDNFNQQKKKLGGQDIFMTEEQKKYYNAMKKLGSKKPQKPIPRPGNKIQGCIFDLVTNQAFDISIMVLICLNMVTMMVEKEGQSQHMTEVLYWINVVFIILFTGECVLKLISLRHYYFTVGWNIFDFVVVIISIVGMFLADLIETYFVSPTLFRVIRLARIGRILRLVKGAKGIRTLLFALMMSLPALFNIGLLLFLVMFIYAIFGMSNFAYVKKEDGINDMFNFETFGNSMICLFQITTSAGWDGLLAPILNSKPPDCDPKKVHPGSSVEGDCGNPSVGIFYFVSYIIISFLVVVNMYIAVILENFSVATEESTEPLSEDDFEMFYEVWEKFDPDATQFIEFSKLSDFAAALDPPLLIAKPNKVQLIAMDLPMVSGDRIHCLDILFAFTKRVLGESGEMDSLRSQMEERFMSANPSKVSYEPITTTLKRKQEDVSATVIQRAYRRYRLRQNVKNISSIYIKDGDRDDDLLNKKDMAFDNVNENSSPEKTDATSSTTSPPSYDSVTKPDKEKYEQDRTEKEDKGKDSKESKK

For `CC[C@H](C)[C@@H]1NC(=O)[C@@H]2CSSC[C@@H]3NC(=O)[C@H](C(C)C)NC(=O)[C@H](CC(C)C)NC(=O)[C@H](CC(N)=O)NC(=O)[C@@H]4CCCN4C(=O)[C@H](CCCNC(=N)N)NC(=O)[C@H](CSSC[C@H](NC(=O)[C@@H](N)CC(=O)O)C(=O)N[C@@H](CC(C)C)C(=O)NCC(=O)N(C)[C@@H](C(C)C)C(=O)N[C@@H](CC(C)C)C(=O)N[C@@H](CCCNC(=N)N)C(=O)N[C@@H](CCCCN)C(=O)N2)NC(=O)[C@H](CSSC[C@@H](C(=O)N[C@@H](CCCCN)C(=O)N[C@@H](Cc2ccc(O)cc2)C(=O)N[C@H](C(=O)N[C@@H](Cc2ccccc2)C(N)=O)C(C)C)NC(=O)[C@H](Cc2c[nH]c4ccccc24)NC(=O)[C@H](CCCCN)NC(=O)[C@H](Cc2c[nH]cn2)NC(=O)[C@H]([C@@H](C)O)NC(=O)[C@H](CCCNC(=N)N)NC(=O)[C@H](CO)NC3=O)NC(=O)[C@H](CCCCN)NC(=O)[C@H](CC(=O)O)NC(=O)[C@H](CC(N)=O)NC(=O)[C@H](CC(=O)O)NC(=O)[C@@H]2CCCN2C1=O` [[NMeVal5;Leu6]GpTx-1(1-34)], the IC50 in experiment [1] (Nav1.7 Use IC50) is 0.05 µM; in experiment [2] it was above 10 µM.

As for `CCC[C@@H]1NC(=O)CNC(=O)[C@H](CC(C)C)NC(=O)[C@@H](NC(=O)[C@@H](N)CC(=O)O)CSSC[C@@H]2NC(=O)[C@@H]3CSSC[C@@H](C(=O)N[C@@H](CCCCN)C(=O)N[C@@H](Cc4ccc(O)cc4)C(=O)N[C@H](C(=O)N[C@@H](Cc4ccccc4)C(N)=O)C(C)C)NC(=O)[C@H](Cc4c[nH]c5ccccc45)NC(=O)[C@H](CCC(=O)O)NC(=O)[C@H](Cc4c[nH]cn4)NC(=O)[C@H]([C@@H](C)O)NC(=O)[C@H](CCCNC(=N)N)NC(=O)[C@H](CO)NC(=O)[C@H](CSSC[C@H](NC(=O)[C@H](CCCCN)NC(=O)[C@H](CCCNC(=N)N)NC(=O)[C@H](CCSC)NC1=O)C(=O)N[C@@H]([C@@H](C)CC)C(=O)N1CCC[C@H]1C(=O)N[C@@H](CC(=O)O)C(=O)N[C@@H](CC(N)=O)C(=O)N[C@@H](CC(=O)O)C(=O)N[C@@H](CCCCN)C(=O)N3)NC(=O)[C@H](C(C)C)NC(=O)[C@H](CC(C)C)NC(=O)[C@H](CC(N)=O)NC(=O)[C@@H]1CCCN1C(=O)[C@H](CCCNC(=N)N)NC2=O` [[Nva5;Glu28]GpTx-1(1-34)] (H-DCLG[Nva]MRKCIPDNDKCCRPNLVCSRTHEWCKYVF-NH2; disulfide 2-17, 9-23, 16-30), the IC50 in experiment [1] (Nav1.7 Use IC50) is 0.056 µM; in experiment [2] it was above 10 µM.

In the case of `CCC[C@@H]1NC(=O)CNC(=O)[C@H](CC(C)C)NC(=O)[C@@H](NC(=O)[C@@H](N)CC(=O)O)CSSC[C@@H]2NC(=O)[C@@H]3CSSC[C@@H](C(=O)N[C@@H](CCCCN)C(=O)N[C@@H](Cc4ccc(O)cc4)C(=O)N[C@H](C(=O)N[C@@H](Cc4ccccc4)C(N)=O)C(C)C)NC(=O)[C@H](Cc4c[nH]c5ccccc45)NC(=O)[C@H](CCC(=O)O)NC(=O)[C@H](Cc4c[nH]cn4)NC(=O)[C@H]([C@@H](C)O)NC(=O)[C@H](CCCNC(=N)N)NC(=O)[C@H](CO)NC(=O)[C@H](CSSC[C@H](NC(=O)[C@H](CCCCN)NC(=O)[C@H](CCCNC(=N)N)NC(=O)[C@H](CC(C)C)NC1=O)C(=O)N[C@@H]([C@@H](C)CC)C(=O)N1CCC[C@H]1C(=O)N[C@@H](CC(=O)O)C(=O)N[C@@H](CC(N)=O)C(=O)N[C@@H](CC(=O)O)C(=O)N[C@@H](CCCCN)C(=O)N3)NC(=O)[C@H](C(C)C)NC(=O)[C@H](CC(C)C)NC(=O)[C@H](CC(N)=O)NC(=O)[C@@H]1CCCN1C(=O)[C@H](CCCNC(=N)N)NC2=O` [[Nva5;Leu6;Glu28]GpTx-1(1-34)] (H-DCLG[Nva]LRKCIPDNDKCCRPNLVCSRTHEWCKYVF-NH2; disulfide 2-17, 9-23, 16-30), the 50% inhibitory concentration (IC50) is 0.042 µM in experiment [1] (Nav1.7 Use IC50) and above 10 µM in experiment [2].

Take `CCC[C@@H]1NC(=O)CNC(=O)[C@H](CC(C)C)NC(=O)[C@@H](NC(=O)[C@@H](N)CC(=O)O)CSSC[C@@H]2NC(=O)[C@@H]3CSSC[C@@H](C(=O)N[C@@H](CCCCN)C(=O)N[C@@H](Cc4ccc(O)cc4)C(=O)N[C@H](C(=O)N[C@@H](Cc4ccccc4)C(N)=O)C(C)C)NC(=O)[C@H](Cc4c[nH]c5ccccc45)NC(=O)[C@H](CCCCN)NC(=O)[C@H](Cc4c[nH]cn4)NC(=O)[C@H]([C@@H](C)O)NC(=O)[C@H](CCCNC(=N)N)NC(=O)[C@H](CO)NC(=O)[C@H](CSSC[C@H](NC(=O)[C@H](CCCCN)NC(=O)[C@H](CCCNC(=N)N)NC(=O)[C@H](CC(C)C)NC1=O)C(=O)N[C@@H]([C@@H](C)CC)C(=O)N1CCC[C@H]1C(=O)N[C@@H](CC(=O)O)C(=O)N[C@@H](CC(N)=O)C(=O)N[C@@H](CC(=O)O)C(=O)N[C@@H](CCCCN)C(=O)N3)NC(=O)[C@H](C(C)C)NC(=O)[C@H](CC(C)C)NC(=O)[C@H](CC(N)=O)NC(=O)[C@@H]1CCCN1C(=O)[C@H](CCCNC(=N)N)NC2=O` [[Nva5;Leu6]GpTx-1(1-34)]: the IC50 in experiment [1] (Nav1.7 Use IC50) is 0.083 µM; in experiment [2], above 10 µM.

In the case of `CC[C@H](C)[C@@H]1NC(=O)[C@@H]2CSSC[C@@H]3NC(=O)[C@H](C(C)C)NC(=O)[C@H](CC(C)C)NC(=O)[C@H](CC(N)=O)NC(=O)[C@@H]4CCCN4C(=O)[C@H](CCCNC(=NC)NC)NC(=O)[C@H](CSSC[C@H](NC(=O)[C@@H](N)CC(=O)O)C(=O)N[C@@H](CC(C)C)C(=O)NCC(=O)N[C@@H](Cc4ccccc4)C(=O)N[C@@H](CCSC)C(=O)N[C@@H](CCCNC(=N)N)C(=O)N[C@@H](CCCCN)C(=O)N2)NC(=O)[C@H](CSSC[C@@H](C(=O)N[C@@H](CCCCN)C(=O)N[C@@H](Cc2ccc(O)cc2)C(=O)N[C@H](C(=O)N[C@@H](Cc2ccccc2)C(N)=O)C(C)C)NC(=O)[C@H](Cc2c[nH]c4ccccc24)NC(=O)[C@H](CCCCN)NC(=O)[C@H](Cc2c[nH]cn2)NC(=O)[C@H]([C@@H](C)O)NC(=O)[C@H](CCCNC(=N)N)NC(=O)[C@H](CO)NC3=O)NC(=O)[C@H](CCCCN)NC(=O)[C@H](CC(=O)O)NC(=O)[C@H](CC(N)=O)NC(=O)[C@H](CC(=O)O)NC(=O)[C@@H]2CCCN2C1=O` [[SDMA18]GpTx-1(1-34)], the IC50 amounted to 0.006 µM in experiment [1] (read-out: Nav1.7 Use IC50) and 10 µM in experiment [2].

As to `CC[C@H](C)[C@@H]1NC(=O)[C@@H]2CSSC[C@@H]3NC(=O)[C@H](C(C)C)NC(=O)[C@H](CC(C)C)NC(=O)[C@H](CC(N)=O)NC(=O)[C@@H]4CCCN4C(=O)[C@H](CCCNC(=N)N)NC(=O)[C@H](CSSC[C@H](NC(=O)[C@@H](N)CC(=O)O)C(=O)N[C@@H](CC(C)C)C(=O)NCC(=O)N(C)CC(=O)N[C@@H](Cc4ccccc4)C(=O)N[C@@H](CCCNC(=N)N)C(=O)N[C@@H](CCCCN)C(=O)N2)NC(=O)[C@H](CSSC[C@@H](C(=O)N[C@@H](CCCCN)C(=O)N[C@@H](Cc2ccc(O)cc2)C(=O)N[C@H](C(=O)N[C@@H](Cc2ccccc2)C(N)=O)C(C)C)NC(=O)[C@H](Cc2c[nH]c4ccccc24)NC(=O)[C@H](CCCCN)NC(=O)[C@H](Cc2c[nH]cn2)NC(=O)[C@H]([C@@H](C)O)NC(=O)[C@H](CCCNC(=N)N)NC(=O)[C@H](CO)NC3=O)NC(=O)[C@H](CCCCN)NC(=O)[C@H](CC(=O)O)NC(=O)[C@H](CC(N)=O)NC(=O)[C@H](CC(=O)O)NC(=O)[C@@H]2CCCN2C1=O` [[Sar5;Phe6]GpTx-1(1-34)] (H-DCLG[Sar]FRKCIPDNDKCCRPNLVCSRTHKWCKYVF-NH2; disulfide 2-17, 9-23, 16-30), the IC50 in experiment [1] (Nav1.7 Use IC50) is 0.025 µM; in experiment [2], above 10 µM.

Turning to `CC[C@H](C)[C@@H]1NC(=O)[C@@H]2CSSC[C@@H]3NC(=O)[C@H](C(C)C)NC(=O)[C@H](CC(C)C)NC(=O)[C@H](CC(N)=O)NC(=O)[C@@H]4CCCN4C(=O)[C@H](CCCNC(=N)N)NC(=O)[C@H](CSSC[C@H](NC(=O)[C@@H](N)CC(=O)O)C(=O)N[C@@H](CC(C)C)C(=O)NCC(=O)N[C@@H](CO)C(=O)N[C@@H](Cc4ccccc4)C(=O)N[C@@H](CCCNC(=N)N)C(=O)N[C@@H](CCCCN)C(=O)N2)NC(=O)[C@H](CSSC[C@@H](C(=O)N[C@@H](CCCCN)C(=O)N[C@@H](Cc2ccc(O)cc2)C(=O)N[C@H](C(=O)N[C@@H](Cc2ccccc2)C(N)=O)C(C)C)NC(=O)[C@H](Cc2c[nH]c4ccccc24)NC(=O)[C@H](CCCCN)NC(=O)[C@H](Cc2c[nH]cn2)NC(=O)[C@H]([C@@H](C)O)NC(=O)[C@H](CCCNC(=N)N)NC(=O)[C@H](CO)NC3=O)NC(=O)[C@H](CCCCN)NC(=O)[C@H](CC(=O)O)NC(=O)[C@H](CC(N)=O)NC(=O)[C@H](CC(=O)O)NC(=O)[C@@H]2CCCN2C1=O` [[Ser5;Phe6]GpTx-1(1-34)] (H-DCLGSFRKCIPDNDKCCRPNLVCSRTHKWCKYVF-NH2; disulfide 2-17, 9-23, 16-30), the IC50 in experiment [1] (Nav1.7 Use IC50) is 0.024 µM; in experiment [2], above 10 µM.

In the case of `CC[C@H](C)[C@@H]1NC(=O)[C@@H]2CSSC[C@@H]3NC(=O)[C@H](C(C)C)NC(=O)[C@H](CC(C)C)NC(=O)[C@H](CC(N)=O)NC(=O)[C@@H]4CCCN4C(=O)[C@H](CCCNC(=N)N)NC(=O)[C@H](CSSC[C@H](NC(=O)[C@@H](N)CC(=O)O)C(=O)N[C@@H](CC(C)C)C(=O)NCC(=O)N[C@@H](C(C)(C)C)C(=O)N[C@@H](CC(C)C)C(=O)N[C@@H](CCCNC(=N)N)C(=O)N[C@@H](CCCCN)C(=O)N2)NC(=O)[C@H](CSSC[C@@H](C(=O)N[C@@H](CCCCN)C(=O)N[C@@H](Cc2ccc(O)cc2)C(=O)N[C@H](C(=O)N[C@@H](Cc2ccccc2)C(N)=O)C(C)C)NC(=O)[C@H](Cc2c[nH]c4ccccc24)NC(=O)[C@H](CCCCN)NC(=O)[C@H](Cc2c[nH]cn2)NC(=O)[C@H]([C@@H](C)O)NC(=O)[C@H](CCCNC(=N)N)NC(=O)[C@H](CO)NC3=O)NC(=O)[C@H](CCCCN)NC(=O)[C@H](CC(=O)O)NC(=O)[C@H](CC(N)=O)NC(=O)[C@H](CC(=O)O)NC(=O)[C@@H]2CCCN2C1=O` [[Tle5;Leu6]GpTx-1(1-34)], the IC50 in experiment [1] (Nav1.7 Use IC50) is 0.017 µM; in experiment [2] it was above 10 µM.
